“Also recorded” adds a separate entry of the source.
Legend:
[1] = tested on: primary postnatal (P0) cortical cells; assay: Neurite Outgrowth Assay (neuroprotection against Aβ1-42-induced reduction of neurite outgrowth); assay type: cell-based, rat; settings: for % Attenuation Effect of 5 μM Aβ 1-42: 5 μM Aβ1-42, 3 days, compound pretreatment about 5 hours; for Emax at 3 µM / Emax at 0.3 µM: Rattus norvegicus, relative to 300 nM dimebolin, read-out: Maximum Effect (of % 300 nM Dimebolin) at Concentration; for Emax at 3 µM: maximum response at 3000 nM test compound; for Emax at 0.3 µM: maximum response at 300 nM test compound
Description: In addition to PC12 cells, other cellular model systems may also be used. Rat cortical cells can be cultured and prepared for high content microscopy analysis as previously described (Hu, M.; Schurdak, M. E.; et al. High content screen microscopy analysis of Aβ1-42-induced neurite outgrowth reduction in rat primary cortical neurons: Neuroprotective effects of α7 neuronal nicotinic acetylcholine receptor ligands. Brain Res. 2007, 1151, 227-235.). Briefly, cortical cell cultures are plated at density of 5×10^5 cells/mL onto poly-D-lysine coated 96-well plates and maintained in a cell incubator at 37° C. with 5% CO2. Experiments are performed using 6-7 day-old cortical cell cultures by treating with test compounds. In some experiments, the effect of test compounds on reversing Aβ toxicity can also be measured (Hu, M.; Schurdak, M. E.; et al. High content screen microscopy analysis of Aβ1-42-induced neurite outgrowth reduction in rat primary cortical neurons: Neuroprotective effects of α7 neuronal nicotinic acetylcholine receptor ligands. Brain Res. 2007, 1151, 227-235.). For assessment of neuroprotective effects, cells are first pretreated with test compounds for about 5 hours. Medium is then replaced with the medium containing freshly prepared about 5 μM Aβ1-42 peptide in the absence or presence of the test compounds for 3 days. The untreated group contains the same percentage of vehicle (DMSO) as in the treatment groups. Cells are fixed with approximately 4% paraformaldehyde containing 0.5% Hoechst 33342 for about 15 minutes, followed by three washes using PBS (pH 7.4) and blocked with 10% donkey serum in PBS for 1 hour at room temperature. The cells are then incubated overnight at about 4° C. with mouse anti-tubulin monoclonal antibody (1:100) for staining neurons and rabbit anti-GFAP (1:1000) for staining glia. In the next day, cells are incubated with FITC-labeled anti-mouse and TRITC-labeled anti-rabbit antibodies (1:1000) for about 1 hour at room temperature. After fixing and staining the cells, nuclei (360/400 nm excitation and 465/300 nm emission filters), neuron (475/350 nm excitation and 535/400 nm emission filters) and glial cell (535 nm excitation and 610 nm emission filters) images are collected using the ImageExpress Micro automatic fluorescent microscopy system (Molecular Devices, Sunnyvale, Calif.) employing a Nikon 10× Plan Fluor objective and Cool Snap HQ CCD camera. The Neurite Outgrowth module in the MetaMorph Imaging software can be used to automatically count total cell number, number of neuron cells, and the extent of neurite outgrowth.
The neurite outgrowth observed for untreated cells is set to 100% response. Treatment of cells with compounds prior to and concomitantly with Aβ1-42 gave a neuroprotective effect with neurite outgrowth maintained or enhanced relative to untreated cells.

[2] = tested on: SK-N-SH human neuroblastoma cells; assay: Serum Deprivation/JC-1 Mitochondrial Membrane Potential (MMP) Assay; assay type: cell-based; settings: Homo sapiens, SK-N-SH; for Emax: percent maximal JC-1 ratio normalized to peak value for 10 μM dimebolin, read-out: JC-1 max %; for EC50: serum deprivation ~18 hours, JC-1 ratio normalized to peak value for 10 μM dimebolin
Description: Tissue Culture: SK-N-SH human neuroblastoma cells obtained from American Type Culture Collection (Rockville, Md.) were maintained in the log phase of growth in Minimal Essential Media (MEM), 10% heat inactivated fetal calf serum and 100 units/mL antibiotic-antimycotic (AA). Cells were cultured and maintained in a humidified incubator at 37° C. under 5% CO2 and 95% air. Cells were trypsinized (0.25%) and subcultured every 3 days and used from 15-18 passages. All cell culture supplies were obtained from Invitrogen (Carlsbad, Calif.).
Serum Deprivation/JC-1 Mitochondrial Membrane Potential (MMP) Assay.
SK-N-SH cells were plated 2-3 days in advance at a concentration of 50,000 cells/well onto collagen coated black-walled 96 well plates (Becton-Dickinson, Bedford, Mass.) in a total volume of 200 μL. On day of experimental treatment, the media containing serum was aspirated from each well and rinsed once with MEM/1% AA without serum. The cells then were incubated overnight in 100 μL of MEM/1% AA (no serum) with and without dimebolin or novel chemical entities overnight for ˜18 hours. The following day, JC-1 dye (5,5′,6,6′-tetrachloro-1,1′,3,3′-tetraethylbenzimidazolcarbocyanide) was diluted 1:10 into MEM media according to the JC-1 Mitochondrial Membrane Potential Assay Kit: (Cayman Chemical Company, Ann Arbor, Mich.) and then 10 μL of the JC-1 dye solution was added to each well. The plates were centrifuged for 5 minutes at 400×g at room temperature followed by 40 minute incubation at 37° C. The plates were washed twice with 200 μL of provided Assay Buffer followed an addition of 100 μL of Assay Buffer to each well. The plates were read with an excitation and emission of 560 nm and 595 nM for red fluorescence and with an excitation and emission of […] and 535 nM for green fluorescence to determine the final JC-1 value taking the red to green fluorescence ratio. This assay is based on change in mitochondrial membrane potential (MMP) using this lipophilic cationic dye, JC-1, by monitoring the changes in the ratio of red to green fluorescence as the MMP depolarizes. This change in MMP reflects the health of the cell with healthy, viable cells have a high JC-1 ratio and high MMP whereas apoptotic, unhealthy cells have a low JC-1 ratio or low MMP.
For the ability of compounds to reverse the stress due to serum deprivation and increase the JC-1 ratio, the percent maximal intensity in JC-1 ratio was normalized to that induced by the peak value for 10 μM dimebolin and plotted against the compound concentration to calculate EC50 values and to control for plate-to-plate variability. Concentration-response data were analyzed using GraphPad Prism (San Diego, Calif.); the EC50 values were derived from a single curve fit to the mean data of n=2-3, in duplicates.
All compounds were dissolved in dimethyl sulfoxide at 10 mM stock solutions and tested at a concentration that the dimethyl sulfoxide levels never exceeded 1%.

mice = assay: Inhibitory Avoidance in Mouse (24-hour recall); assay type: in vivo; settings: 24 hours after initial exposure, 0.001, 0.01, 0.1, and 1.0 mg/kg i.p., versus control
Description: Inhibitory Avoidance in Mouse: The inhibitory avoidance task involves the uses of a two-compartment step through apparatus (Ugo Basile, Collegeville, Pa.) that measures the animal's ability to remember a brief noxious stimulus (foot shock), and is considered a measure of trial learning, and memory consolidation. Briefly, 30 minutes after dosing, mice were placed in a lighted compartment of the apparatus where the latency to enter into the preferred dark compartment is recorded. Entry into a dark compartment results in the immediate delivery of a mild foot shock (0.2 mA, 1-second duration). Retention testing is conducted 24 hours later with the animal again placed in the lighted compartment where its latency to reenter the dark side of the apparatus is measured (no shock). Increasing retention latency is regarded as an index of memory consolidation (Bitner, R. S.; Bunnelle, W. H.; et al. Broad-spectrum efficacy across cognitive domains by α7 nicotinic acetylcholine receptor agonism correlates with activation of ERK1/2 and CREB phosphorylation pathways. J. Neurosci. 2007, 27 (39), 10578-10587.). […] (*p<0.05; **p<0.01, ***p<0.001 versus control)

[3] = tested on: primary rat cortical neurons; settings: comparable to that evoked by BDNF; cited from earlier work
[4] = tested on: Patients with mild-to-moderate Alzheimer's disease; settings: cited from earlier work

For `Cc1ccc(C#Cc2cccc3c4c([nH]c23)C2CCN(CC2)C4)cn1` [Example 3, 7-[(6-methylpyridin-3-yl)ethynyl]-3,4,5,6-tetrahydro-1H-2,5-ethanoazepino[4,3-b]indole], the “% Attenuation Effect of 5 μM Aβ 1-42” value [1] was 43%, the Emax at 3 µM [1] was 115% and the Emax [2] was 188%. The EC50 [2] was 4.36 µM and the “latency to reenter the dark side (punishment side)” value (mice) was “significantly increased; also recorded: concentration-dependent improvement”.

In the case of `Cc1ccc(/C=C/c2ccc3[nH]c4c(c3c2)CN2CCC4CC2)cn1` [Example 8, 9-[(E)-2-(6-methylpyridin-3-yl)vinyl]-3,4,5,6-tetrahydro-1H-2,5-ethanoazepino[4,3-b]indole], the “% Attenuation Effect of 5 μM Aβ 1-42” value [1] is reported as 49%, the Emax at 0.3 µM [1] is reported as 121% and the Emax [2] is reported as 162%. It also gave an EC50 [2] of 4.05 µM.

With `c1cnc2ccc(-c3cccc4c5c([nH]c34)C3CCN(CC3)C5)cc2c1` [Example 27, 7-quinolin-6-yl-3,4,5,6-tetrahydro-1H-2,5-ethanoazepino[4,3-b]indole] the “% Attenuation Effect of 5 μM Aβ 1-42” value [1] was 38%, the Emax at 0.3 µM [1] was 109% and the Emax [2] was 133%. The EC50 [2] was 6.39 µM.

For `Cc1ccc2c(c1)c1c(n2CCc2ccc(C)nc2)CCN(C)C1` [dimebolin, 2,3,4,5-tetrahydro-2,8-dimethyl-5-[2-(6-methyl-3-pyridinyl)ethyl]-1H-pyrido[4,3-b]indole], the neurite outgrowth [3] is listed as “increase neurite outgrowth”, the “clinical course of disease, improvement over baseline for ADAS-Cog” value ([4]; 20 mg three times a day (60 mg/day)) is listed as “significant improvement” and the “most frequent adverse event” value ([4]; recently reported clinical studies) is listed as “dry mouth”.

With `Cc1ccc(/C=C/c2cccc3c4c([nH]c23)C2CCN(CC2)C4)cn1` [Example 1, 7-[(E)-2-(6-methylpyridin-3-yl)vinyl]-3,4,5,6-tetrahydro-1H-2,5-ethanoazepino[4,3-b]indole] the “% Attenuation Effect of 5 μM Aβ 1-42” value [1] was 34%, the Emax at 3 µM [1] was 106% and the Emax [2] was 139%. The EC50 [2] was 6.02 µM and the “latency to reenter the dark side (punishment side)” value (mice) was “significantly increased; also recorded: concentration-dependent improvement”.
